Assay results published in PubChem BioAssay (NCI).
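Protocol summary: plate cells (96-well), add compound at 5 concentrations, incubate 48 h, interpolate endpoints linearly. Abbreviation: GI50, concentration required for 50% inhibition of growth. Definition used: TGI = concentration required for complete inhibition of growth.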

Legend:
Assay in all cases: NCI anticancer screen, dose series, 48 h
SNB-78 CNS = test system: SNB-78 CNS
KM12 colon = test system: KM12 colon
SF-539 CNS = test system: SF-539 CNS
DMS 114 small cell lung = test system: DMS 114 small cell lung
SF-268 CNS = test system: SF-268 CNS
SW-620 colon = test system: SW-620 colon
ACHN renal = test system: ACHN renal
HT29 colon = test system: HT29 colon
MCF7 breast = test system: MCF7 breast
BT-549 breast = test system: BT-549 breast

Compound	TGI (SNB-78 CNS)	TGI (KM12 colon)	TGI (SF-539 CNS)	TGI (DMS 114 small cell lung)	TGI (SF-268 CNS)	TGI (SW-620 colon)	TGI (ACHN renal)	TGI (HT29 colon)	GI50 (SNB-78 CNS)	GI50 (KM12 colon)	GI50 (SF-539 CNS)	GI50 (SF-268 CNS)	GI50 (SW-620 colon)	GI50 (ACHN renal)	GI50 (HT29 colon)	GI50 (MCF7 breast)	TGI (MCF7 breast)	GI50 (BT-549 breast)	TGI (BT-549 breast)
C=C1C(=O)OC2C/C(C)=C/CC/C(C)=C/CCC3(COC(C)=O)OC3CC12 (stereo not drawn)	30.3 µM	27.9 µM	7.85 µM	14.6 µM	21.7 µM	5.09 µM	27.5 µM	24.1 µM											
O=c1/c(=C/c2ccccc2[N+](=O)[O-])sc2nc3ccccc3n12	> 46.4 µM	> 46.4 µM	37.9 µM	36.8 µM	> 46.4 µM	55.6 µM	> 46.4 µM	> 46.4 µM											
N/N=C1\C(=O)N(C2CCCCCC2)C(=O)C1C(=O)NC1CCCCCC1 (stereo not drawn)	77.3 µM	> 100 µM	56.1 µM		> 100 µM	> 100 µM	> 100 µM	> 100 µM											
COC12CCC(=O)C=C1c1ccccc1N2C(C)=O (stereo not drawn)	> 100 µM	> 100 µM	> 100 µM	> 100 µM		> 100 µM	> 100 µM	> 100 µM											
Cc1nn[n-]n1.N.N.N.N.N.[Cl-].[Co+3]	> 100 µM	> 100 µM	> 100 µM		> 100 µM	> 100 µM	> 100 µM	> 100 µM	> 100 µM	> 100 µM	> 100 µM	> 100 µM	> 100 µM	> 100 µM	> 100 µM				
CCOC(=O)C(Cc1c[nH]c2c(N(CCO)CCO)cccc12)(NC(C)=O)C(=O)OCC		978 µM	> 1000 µM		> 1000 µM	> 1000 µM	> 1000 µM	417 µM		302 µM	> 1000 µM	> 1000 µM	431 µM	119 µM	140 µM	141 µM	305 µM	564 µM	> 1000 µM
Cc1ccccc1NC(=O)c1cc(-c2ccc([N+](=O)[O-])cc2)nc(=S)[nH]1	> 100 µM	> 100 µM	> 100 µM	> 100 µM	> 100 µM	> 100 µM	> 100 µM	> 100 µM											
N#Cc1ccccc1C(Cl)(Cl)c1cnccn1	> 100 µM	> 100 µM	> 100 µM	43 µM	> 100 µM	> 100 µM	> 100 µM	> 100 µM											
O=C1CC2C(=O)c3ccccc3CC2c2ccccc21 (stereo not drawn)		> 100 µM	> 100 µM		> 100 µM	> 100 µM	> 100 µM	> 100 µM									> 100 µM		> 100 µM
CCNC(=O)COc1ccc(Br)cc1Br	> 100 µM	> 100 µM	> 100 µM	> 100 µM	> 100 µM	> 100 µM	> 100 µM	> 100 µM											
CC1/C=C/[C@@]2(C)CCC(C(C)(C)O)C2C(O)C[C@](C)(O)/C=C/C1 (stereo partly drawn)	> 100 µM	> 100 µM	> 100 µM	> 100 µM	> 100 µM	> 100 µM	> 100 µM	> 100 µM											
[C](#Cc1ccccc1)[Hg][C]#Cc1ccccc1		> 100 µM	> 100 µM		38 µM	> 100 µM	41.6 µM	40.9 µM		94.1 µM	53.1 µM	18.7 µM	35.5 µM	21.1 µM	14.1 µM	10.4 µM	56.9 µM	22.1 µM	43.2 µM
CC1=C[C@H]2c3c([nH]c4ccccc34)C(c3c[nH]c4ccccc34)[C@H]2CC1 (stereo partly drawn)	13.2 µM		25.6 µM	20.5 µM		24.1 µM	25 µM	11.5 µM											
COc1ccccc1C#Cc1ccccc1C#CCCCCO		57.8 µM	29.1 µM		45.2 µM	46.4 µM	38.6 µM	29 µM		23.1 µM	14.4 µM	18 µM	19.2 µM	19.4 µM	8.58 µM	31.7 µM	> 100 µM	15.5 µM	33.4 µM
CC1=Nc2c(ccc3c2C(=O)c2ccccc2C3=O)NC(c2cccc3c2CCC3)C1 (stereo not drawn)	> 100 µM	> 100 µM	> 100 µM		> 100 µM	> 100 µM	> 100 µM	> 100 µM											
CCCNC(=O)C1C(=O)C(=O)N(CCC)C1=O (stereo not drawn)	> 100 µM	> 100 µM	> 100 µM	> 100 µM	> 100 µM	> 100 µM	> 100 µM	> 100 µM											
